Measured values: patent US9969979B2, “Methods for producing cells having a phenotype of a primary human hepatocytes and compositions” (The Governors of the University of Alberta, priority 2012, dated 2018)

Tested on: Huh7.5 cells
Test: Quantitative RT-PCR of hepatocyte differentiation markers in cultured Huh7.5 cells
Format: cell-based, human
Details: Huh7.5 cells grown 3 weeks, relative to FBS
Procedure: RNA was isolated from cells using Trizol, according to the instructions of the manufacturer. cDNA was produced from the RNA using Quantitect Reverse Transcription kit (Qiagen). Gene specific primer-probe sets were designed by Applied Biosystems. An Applied Biosystems 7900HT Fast Real-Time PCR system was used for the quantitation of gene products. Gene expression was calculated relative to HPRT according to Pfaffl (Pfaffl M W. Nucleic Acids Res 29: e45, 2001).
To further evaluate the effect of culturing cells in HS-containing medium, and to assess whether these cells underwent differentiation to a primary hepatocyte-like cell, level of expression of hepatocyte differentiation marker were assayed at 7 days and 21 days after transfer of Huh7.5 cells into HS-supplemented medium. After 7 days only minor changes in hepatocyte markers were observed. (FIG. 3A) However, after 21 days, the expression of the hepatic differentiation markers albumin and alpha1-antiTrypsin was increased approximately 4 fold in cells grown in human serum compared to FBS. The level of expression of these proteins is similar to the level of expression of human primary hepatocytes in culture.
DMSO, (dimethyl sulfoxide) has been reported to induce growth arrest in HuH-7 or -derived cells, and other hepatoma cells. (Sainz et al. (2006) J Virol 80: 10253-10257). […]

C[S+](C)[O-] [DMSO, dimethyl sulfoxide]
Albumin expression: slight increase
